One compound from publication PMC4523432 (Molecular oncology, 2015) can be followed below.

The target in the assay is T1, Musashi-1 (MSI1) (Mus musculus, UniProt Q61474).
T1 sequence (Q61474 20-107): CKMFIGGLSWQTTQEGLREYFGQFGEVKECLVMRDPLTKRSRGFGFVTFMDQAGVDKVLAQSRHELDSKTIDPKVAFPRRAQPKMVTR
The assay can be described thus: SPR on immobilized GB1-RBD1, 1H-15N HSQC NMR titration. The format is binding.

Usually Ki stands for a measure of affinity in units of concentration, obtained from inhibition or displacement. Read a low Ki as tighter binding. The compound `Cc1cc2c(C(C)C)c(O)c(O)c(C=O)c2c(O)c1-c1c(C)cc2c(C(C)C)c(O)c(O)c(C=O)c2c1O` [(–)-G, (–)-gossypol] yielded a Ki of 476 ± 273 nM.
